Measurements taken from patent publication US20030004194A1, “Method for treating fibrotic diseases or other indications VI” (Alteon, Inc., priority 2001, published 2003).
Where a name gives a salt, the structure may show the parent alone.

Tests used:
Phase IIa clinical trial = assay type: in vivo, human
Source text: When the heart pumps blood into the vascular system, the ability of the arteries to expand helps to push blood through the body. When arteries become stiff, as they do in the natural process of aging, the ability of the arteries to expand is diminished and also has consequences for the heart. The heart has to work harder to pump the blood into the stiff arteries, and eventually hypertrophies (enlarges in size) to accomplish this. A hypertrophied heart is an inefficient pump, and is one of the disorders that leads to congestive heart failure. […] The potential clinical benefit of this is to lessen the effort that the heart must expend to push blood throughout the body. The effect is also believed to contribute to preventing hypertrophy and subsequent inefficiency of the heart, which inefficiency would contribute to congestive heart failure.
Atherosclerosis is a disease that involves deposition of blood lipids in plaque in the arteries throughout the body. In coronary arteries, accumulation of plaque progressively leads to reduced coronary flow, with occlusion of the arteries causing focal death of cardiac tissue (myocardial infarction, heart attack). If the amount of tissue that dies is large enough, death ensures. […] Reducing local deposits of plaque should eventually lessen the risk of myocardial infarction and death due to heart attacks.
Pulse pressure is the difference between systolic and diastolic blood pressure. In a young human, systolic pressure is typically 120 mm Hg and diastolic pressure is 80 mm Hg, resulting in a pulse pressure of 40 mm Hg. With age, in many individuals pulse pressure increases, largely due to the increase in systolic pressure that results from stiff vessel disease. In individuals with pulse pressure greater than 60 mm Hg there is an increased risk of death from cardiovascular morbidities. […] This decrease in pulse pressure was believed to be due primarily to the effect of the agent on lowering the systolic blood pressure.

[1] = In vivo studies of vascular stiffening; details: in vivo studies in rodents, canines and in primates
Source text: (§1) Cardiovascular risk correlates more closely with the systolic and the pulse pressure than with the diastolic pressure. In diabetic patients, the cardiovascular risk profile of diabetic patients is strongly correlated to duration of diabetes, glycemic control and blood pressure. Structural matrix proteins contribute to the function of vessels and the heart, and changes in the physical behavior of cardiovascular walls are believed to be important determinants of circulatory function. In elderly individuals, the loss of compliance in the aorta leads to isolated systolic hypertension, which in turn expands the arterial wall and thereby diminishes the dynamic range of elasticity. Loss of compliance also results in the development of left ventricular hypertrophy.

[2] = Dog model for diabetes, ventricular elasticity; assay type: in vivo
Source text: as §1

[3] = tested on: collagen in cardiovascular tissues; assay: Mass of collagen in cardiovascular tissues after treatment; assay type: in vivo
Source text: as §1

Type IV collagen = assay: In situ hybridization studies, Type IV collagen expression; assay type: in vivo
Source text: as §1

TGFbeta = assay: In situ hybridization studies, TGFbeta expression; assay type: in vivo
Source text: as §1

For `Cc1sc[n+](CC(=O)c2ccccc2)c1C` [3-[2-phenyl-2-oxoethyl]-4,5-dimethyl-thiazolium salt], the “stiffness of arteries, as measured by the ratio of stroke volume (ml) to pulse pressure (mm Hg)” value (Phase IIa clinical trial; Phase IIa clinical trial) was “showed an ability to reverse the stiffness of arteries”, the “amount of circulating triglycerides (lipids)” value (Phase IIa clinical trial; Phase IIa trial) was “increased the amount of circulating triglycerides” and the pulse pressure (Phase IIa clinical trial; Phase IIa trial, elderly patients with pulse pressures greater than 60 mm Hg, statistically significant) was “reduced pulse pressure”. The vascular stiffening [1] was “substantially ameliorating vascular stiffening”, the “end diastolic pressure (indicator of ventricular elasticity)” value [2] was “returned to a value at about the mid-point between the disease impaired value and the value for control dogs” and the “end diastolic volume (indicator of ventricular elasticity)” value [2] was “returned to a value at about the mid-point between the disease impaired value and the value for control dogs”. For the same compound, the “mass of collagen in cardiovascular tissues” value [3] was “reduction in the mass of collagen”, the “expression of Type IV collagen” value (Type IV collagen) was “reduces the expression” and the “expression of TGFbeta” value (TGFbeta) was “reduces the expression”.
